From patent publication US20230295201A1 (Gilead Sciences, Inc., priority 2020, published 2023)
pEC50: −log10 of the molar value. Where two headings read alike, the source gives them in different places.

What was measured:
Format in all cases: cell-based
HRV99 = HRV99 EC50
HRV1a = assay: HRV1A HELA EC50 (cytopathic effect in H1-HeLa cells); conditions: 96 h, read-out: HRV1A HELA EC50
Protocol: (§1) H1-HeLa cells, cultured in complete RPMI 1640 medium containing 10% heat-inactivated FBS and 1% Penicillin/Streptomycin, were seeded in 96 well plates at 5000 cells/well one day prior to compound dosing and infection. The antiviral activity of each compound was measured in triplicate. Compounds were added directly to the cell cultures in serial 3-fold dilutions using the HP300 digital dispenser (Hewlett Packard, Palo Alto, CA) immediately prior to infection. The plates were transferred to BSL-2 containment and 100 μL of 1/4000 dilution of HRV1a virus stock was added to each well containing cells and serially diluted compounds. Each plate included 6 wells of infected untreated cells and 6 wells of cells containing 5 μM Rupintrivir that served as 0% and 100% virus inhibition control, respectively. Following the infection, test plates were incubated for 96 h in a tissue culture incubator set to 37° C./5% CO2. Following incubation, the H1-HeLa cells were removed from incubation and allowed to equilibrate to 25° C. Cell viability was determined by removing 100 μL of culture medium and adding 100 μL of Cell-Titer Glo viability reagent. The mixtures were incubated on a shaker for 10 minutes at 25° C., and the luminescence signal was quantified on an Envision luminescence plate reader.

HRV14 = HRV14 HELA EC50 (cytopathic effect in H1-HeLa cells); conditions: 96 h, read-out: HRV14 HELA EC50
Protocol: as §1, with “HRV14” for “HRV1a”

RSV A strain A2 = assay: RSV HAE EC50 (intracellular RSV RNA by real-time PCR in HAE cells); conditions: human respiratory syncytial virus, 72 h, read-out: RSV HAE EC50
Protocol: HAE cells are cultured at the air-liquid interface and have an apical side that is exposed to the air and a basal side that is in contact with the medium. Prior to experimentation, HAE were removed from their agar-based shipping packaging and were acclimated to 37° C./5% CO2 overnight in 1 ml of HAE Assay medium (AIR-100-MM, Mattek Corp). HAE were prepared for infection by washing the apical surface twice with 400 μL of PBS (either utilizing direct pipetting methods or by running each transwell through a trough containing PBS) to remove the mucus layer. Apical chambers were drained of PBS and tapped gently onto absorbent material to remove as much PBS as possible. After washing, the cells were transferred to fresh HAE maintenance media containing 4-fold serially diluted compound, delivered to the basal side of the cell monolayer, and apically infected with 100 μL of a 1:600 dilution of RSV A strain A2 1000× stock (ABI, Columbia, MD, cat #10-124-000) in HAE assay medium for 3 hours at 37° C. in 5% CO2. The virus inoculum was removed and the apical surface of the cells was washed 3 times with PBS using either method previously described. The cells were then cultured in the presence of compound for 3 days at 37° C. Following the incubation, total RNA was extracted from the HAE cells using a MagMAX-96 Viral RNA isolation kit (Applied Biosystems, Foster City, CA, Cat #AM1836) and intracellular RSV RNA was quantified by real-time PCR. Approximately 25 ng of purified RNA was added to a PCR reaction mixture that contained 0.9 μM RSV N Forward and RSV N Reverse primers, 0.2 μM RSV N Probe and 1×Taqman RNA-to-Ct 1-Step Kit (Applied Biosystems, Foster City, CA, Cat #4392938). RNA levels were normalized using a Tagman GAPDH control primer set (Applied Biosystems, Foster City, CA, Cat #402869). Real-Time PCR Primers and Probe Used in the RSV A2 HAE Antiviral Assay: […]

Compound | pEC50 (HRV99) | pEC50 (HRV1a) | pEC50 (HRV14) | pEC50 (RSV A strain A2; HAE) | also measured
C[C@H](NP(=O)(OC[C@@]1(C#N)O[C@@H](c2ccc3c(N)ncnn23)[C@H](O)[C@@H]1O)Oc1ccccc1)C(=O)OCC1CC1 (mixture of isomers) [Example 8, (2S)-cyclopropylmethyl 2-(((((2R,3S,4R,5S)-5-(4-aminopyrrolo[2,1-f][1,2,4]triazin-7-yl)-2-cyano-3,4-dihydroxytetrahydrofuran-2-yl)methoxy)(phenoxy)phosphoryl)amino)propanoate] | 5.87 | 6.68 | 6.21 | – | –
CC(C)OC(=O)[C@H](C)NP(=O)(OC[C@@]1(C#N)O[C@@H](c2ccc3c(N)ncnn23)[C@H](O)[C@@H]1O)Oc1ccccc1 (mixture of isomers) [Example 77, Isopropyl ((((2R,3S,4R,5S)-5-(4-aminopyrrolo[2,1-f][1,2,4]triazin-7-yl)-2-cyano-3,4-dihydroxytetrahydrofuran-2-yl)methoxy)(phenoxy)phosphoryl)-L-alaninate] | 5.31 | 6.13 | 5.74 | – | –
CCC(CC)COC(=O)[C@H](CC)NP(=O)(OC[C@@]1(C#N)O[C@@H](c2ccc3c(N)ncnn23)[C@H](O)[C@@H]1O)Oc1ccccc1 (mixture of isomers) [Example 88, (2S)-2-ethylbutyl 2-(((((2R,3S,4R,5S)-5-(4-aminopyrrolo[2,1-f][1,2,4]triazin-7-yl)-2-cyano-3,4-dihydroxytetrahydrofuran-2-yl)methoxy)(phenoxy)phosphoryl)amino)butanoate] | 5.34 | 6.24 | 5.77 | – | –
CC[C@H](NP(=O)(OC[C@@]1(C#N)O[C@@H](c2ccc3c(N)ncnn23)[C@H](O)[C@@H]1O)Oc1ccccc1)C(=O)OC1CCCCC1 (mixture of isomers) [Example 103, (2S)-cyclohexyl 2-(((((2R,3S,4R,5S)-5-(4-aminopyrrolo[2,1-f][1,2,4]triazin-7-yl)-2-cyano-3,4-dihydroxytetrahydrofuran-2-yl)methoxy)(phenoxy)phosphoryl)amino)butanoate] | 5.32 | 5.99 | 5.59 | – | –
CCCCCCCCCCCC(=O)OCCNP(=O)(OC[C@@]1(C#N)O[C@@H](c2ccc3c(N)ncnn23)[C@H](O)[C@@H]1O)Oc1ccccc1 (mixture of isomers) [Example 181, 2-(((((2R,3S,4R,5S)-5-(4-aminopyrrolo[2,1-f][1,2,4]triazin-7-yl)-2-cyano-3,4-dihydroxytetrahydrofuran-2-yl)methoxy)(phenoxy)phosphoryl)amino)ethyl dodecanoate] | – | – | – | 6.67 | –
C[C@H](N[P@](=O)(OC[C@@]1(C#N)O[C@@H](c2ccc3c(N)ncnn23)[C@H](O)[C@@H]1O)Oc1ccccc1)C(=O)OC1CCCCC1 (single isomer, unassigned) [Example 6] | – | – | – | 7.70 | –
C[C@H](N[P@](=O)(OC[C@@]1(C#N)O[C@@H](c2ccc3c(N)ncnn23)[C@H](O)[C@@H]1O)Oc1ccccc1)C(=O)O[C@H]1CC[C@H](C(F)(F)F)CC1 (single isomer, unassigned) [Example 18] | – | – | – | 7.57 | –
C[C@H](N[P@](=O)(OC[C@@]1(C#N)O[C@@H](c2ccc3c(N)ncnn23)[C@H](O)[C@@H]1O)Oc1ccccc1)C(=O)O[C@H]1CC[C@H](C(C)(C)C)CC1 (single isomer, unassigned) [Example 22] | – | – | – | 7.72 | –
CCC(CC)COC(=O)[C@H](C)N[P@](=O)(OC[C@@]1(C#N)O[C@@H](c2ccc3c(N)ncnn23)[C@H](O)[C@@H]1O)Oc1ccccc1 (single isomer, unassigned) [Example 25] | – | – | – | 6.82 | –
C[C@H](NP(=O)(OC[C@@]1(C#N)O[C@@H](c2ccc3c(N)ncnn23)[C@H](O)[C@@H]1O)Oc1ccccc1)C(=O)OC1CCCCC1 (stereo partly drawn) [Example 4, (2S)-cyclohexyl 2-(((((2R,3S,4R,5S)-5-(4-aminopyrrolo[2,1-f][1,2,4]triazin-7-yl)-2-cyano-3,4-dihydroxytetrahydrofuran-2-yl)methoxy)(phenoxy)phosphoryl)amino)propanoate] | 5.96 | 6.72 | 6.35 | – | –
CCC(CC)COC(=O)[C@@H](C)NP(=O)(OC[C@@]1(C#N)O[C@@H](c2ccc3c(N)ncnn23)[C@H](O)[C@@H]1O)Oc1ccccc1 (stereo partly drawn) [Example 82, (2R)-2-ethylbutyl 2-(((((2R,3S,4R,5S)-5-(4-aminopyrrolo[2,1-f][1,2,4]triazin-7-yl)-2-cyano-3,4-dihydroxytetrahydrofuran-2-yl)methoxy)(phenoxy)phosphoryl)amino)propanoate] | 4.71 | 5.56 | 5.04 | – | –
C[C@H](NP(=O)(OC[C@@]1(C#N)O[C@@H](c2ccc3c(N)ncnn23)[C@H](O)[C@@H]1O)Oc1ccccc1)C(=O)OCC(C)(C)C (stereo partly drawn) [Example 92, (2S)-neopentyl 2-(((((2R,3S,4R,5S)-5-(4-aminopyrrolo[2,1-f][1,2,4]triazin-7-yl)-2-cyano-3,4-dihydroxytetrahydrofuran-2-yl)methoxy)(phenoxy)phosphoryl)amino)propanoate] | 6.19 | 7.01 | 6.62 | – | –
CCCCCCCCCCCCCCCCCCOC[C@H](COP(=O)(O)OC[C@@]1(C#N)O[C@@H](c2ccc3c(N)ncnn23)[C@H](O)[C@@H]1O)OCc1ccccc1 [Example 96, ((2R,3S,4R,5S)-5-(4-aminopyrrolo[2,1-f][1,2,4]triazin-7-yl)-2-cyano-3,4-dihydroxytetrahydrofuran-2-yl)methyl ((R)-2-(benzyloxy)-3-(octadecyloxy)propyl) hydrogen phosphate] | 4.19 | – | – | – | pEC50 (RSV A strain A2; HAE cells, RSV A2, 3 days): 4.65; pEC50 (HRV1a; H1-HeLa cells): 5.80; pEC50 (HRV14; H1-HeLa cells): 4.92
CCC(CC)OC(=O)[C@H](C)NP(=O)(OC[C@@]1(C#N)O[C@@H](c2ccc3c(N)ncnn23)[C@H](O)[C@@H]1O)Oc1ccccc1 (stereo partly drawn) [Example 101, (2S)-pentan-3-yl 2-(((((2R,3S,4R,5S)-5-(4-aminopyrrolo[2,1-f][1,2,4]triazin-7-yl)-2-cyano-3,4-dihydroxytetrahydrofuran-2-yl)methoxy)(phenoxy)phosphoryl)amino)propanoate] | 5.13 | 5.79 | 5.46 | – | –
CCCCCCCCCCCCCCCCOCCCOP(=O)(O)OC[C@@]1(C#N)O[C@@H](c2ccc3c(N)ncnn23)[C@H](O)[C@@H]1O [Example 149, ((2R,3S,4R,5S)-5-(4-aminopyrrolo[2,1-f][1,2,4]triazin-7-yl)-2-cyano-3,4-dihydroxytetrahydrofuran-2-yl)methyl (3-(hexadecyloxy)propyl) hydrogen phosphate] | – | – | – | – | pEC50 (RSV A strain A2; HAE cells, RSV A2, 3 days): 6.73
CCCCCCCCCCCCOC(=O)[C@H](C)NP(=O)(OC[C@@]1(C#N)O[C@@H](c2ccc3c(N)ncnn23)[C@H](O)[C@@H]1O)Oc1ccccc1 (stereo partly drawn) [Example 191, dodecyl ((((2R,3S,4R,5S)-5-(4-aminopyrrolo[2,1-f][1,2,4]triazin-7-yl)-2-cyano-3,4-dihydroxytetrahydrofuran-2-yl)methoxy)(phenoxy)phosphoryl)-L-alaninate] | – | – | – | 7.96 | –
